Results: patent US20230234943A1, “TREX1 INHIBITORS AND USES THEREOF” (Tempest Therapeutics, Inc., priority 2020, published 2023)

These compounds were tested against T1, Human TREX1 enzyme (amino acids 1-242) (Homo sapiens, UniProt Q9NSU2) (assay: Human TREX1 enzymatic assay with dsDNA native oligonucleotide (Picogreen fluorescence)). Details: 2 mM dithiothreitol in assay buffer; 50 nM dsDNA oligonucleotide; 30 min preincubation at 25° C.; read-out: TREX1/Human + DTT IC50 AVG.
T1 construct: Human TREX1 enzyme (amino acids 1-242)
T1 sequence (Q9NSU2 1-242): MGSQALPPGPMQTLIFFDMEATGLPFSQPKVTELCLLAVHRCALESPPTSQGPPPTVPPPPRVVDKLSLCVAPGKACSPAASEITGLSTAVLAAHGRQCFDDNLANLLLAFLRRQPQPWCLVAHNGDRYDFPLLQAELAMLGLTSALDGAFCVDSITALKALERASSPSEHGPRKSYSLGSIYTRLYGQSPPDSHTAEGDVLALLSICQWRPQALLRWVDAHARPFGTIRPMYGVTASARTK
Assay type: biochemical
Experimental: Example A. Human TREX1 Enzymatic Assay with dsDNA Native Oligonucleotide
Human TREX1 enzyme (amino acids 1-242) was diluted in assay buffer (20 mM Tris pH 7.7, 5 mM MgCl2, 0.01% human serum albumin, 0.01% Brij™-35, 2 mM dithiothreitol) to a final concentration of 0.8 nM to 0.16 nM and added to a 96-well low-binding polypropylene plate. Test compounds were diluted in DMSO to 50× concentration (final DMSO concentration in reaction mixture of 2%) and added to the wells with a concentration ranging from 300 μM to 13 nM or 30 μM to 1.5 nM. The reaction mixtures were incubated for 30 minutes at 25° C. and a solution of annealed dsDNA oligonucleotide (5′-[…]-3′ and Comp: 5′-[…]-3′) was added to a final concentration of 50 nM. The reaction mixtures were incubated at 25° C. for 5-15 minutes and subsequently quenched by transferring part of the assay reaction to a solution of 100 mM ethylenediaminetetraacetic acid and 1:100 Picogreen™ (final concentration of […]) in a black plate with an opaque bottom. The fluorescence ([…]) was measured using a Molecular Devices SpectraMax plate reader. Wells containing oligonucleotide but no TREX1 enzyme were used as negative controls. Wells containing oligonucleotide, TREX1 enzyme, and DMSO were used as positive controls.

Structure (SMILES)	IC50 [µM]
COc1cc(-c2nc3c(C)ncnc3[nH]2)cc(O)c1O [Example 41, 3-methoxy-5-(6-methyl-9H-purin-8-yl)benzene-1,2-diol]	> 100
COc1cc(-c2nc3ccc(S(=O)(=O)Nc4ccccc4)cc3n2C(CO)CCl)cc(O)c1O (stereo not shown) [Example 42, 1-(1-chloro-3-hydroxypropan-2-yl)-2-(3,4-dihydroxy-5-methoxyphenyl)-N-phenyl-1H-benzo[d]imidazole-6-sulfonamide]	10 to 100
COc1cc(-c2nc3ccncc3n2C2COC2)cc(O)c1O [Example 43, 3-methoxy-5-(3-(oxetan-3-yl)-3H-imidazo[4,5-c]pyridin-2-yl)benzene-1,2-diol]	10 to 100
COc1cc(-c2nc3ccncc3n2C)cc(O)c1O [Example 44, 3-methoxy-5-(3-methyl-3H-imidazo[4,5-c]pyridin-2-yl)benzene-1,2-diol]	> 100
COc1cc(-c2nc3cnccc3n2C)cc(O)c1O [Example 45, 3-methoxy-5-(1-methyl-1H-imidazo[4,5-c]pyridin-2-yl)benzene-1,2-diol]	> 100
COc1cc(-c2nc3cc(S(=O)(=O)Nc4ccccc4)ccc3n2C2COC2)cc(O)c1O [Example 46, 2-(3,4-dihydroxy-5-methoxyphenyl)-1-(oxetan-3-yl)-N-phenyl-1H-benzo[d]imidazole-5-sulfonamide]	10 to 100
COc1cc(-c2nc3cnccc3n2C2COC2)cc(O)c1O [Example 47, 3-methoxy-5-(1-(oxetan-3-yl)-1H-imidazo[4,5-c]pyridin-2-yl)benzene-1,2-diol]	10 to 100
COc1cc(-c2nc3cc(N4CCCCC4)ccc3[nH]2)cc(O)c1O [Example 48, 3-methoxy-5-(5-(piperidin-1-yl)-1H-benzo[d]imidazol-2-yl)benzene-1,2-diol]	> 100
COc1cc(-c2nc3cc(N4CCC(c5ccccc5)CC4)ccc3[nH]2)cc(O)c1O [Example 49, 3-methoxy-5-(5-(4-phenylpiperidin-1-yl)-1H-benzo[d]imidazol-2-yl)benzene-1,2-diol]	> 100
COc1cc(-c2nc3cc(N4CCN(S(C)(=O)=O)CC4)ccc3[nH]2)cc(O)c1O [Example 50, 3-methoxy-5-(5-(4-(methylsulfonyl)piperazin-1-yl)-1H-benzo[d]imidazol-2-yl)benzene-1,2-diol]	1 to 10
COc1cc(-c2nc3ccc(N4CCN(C)CC4)cc3n2C2COC2)cc(O)c1O [Example 51, 3-methoxy-5-(6-(4-methylpiperazin-1-yl)-1-(oxetan-3-yl)-1H-benzo[d]imidazol-2-yl)benzene-1,2-diol]	> 100
COc1cc(-c2nc3cc(N4CCN(CC(F)(F)F)CC4)ccc3[nH]2)cc(O)c1O [Example 52, 3-methoxy-5-(5-(4-(2,2,2-trifluoroethyl)piperazin-1-yl)-1H-benzo[d]imidazol-2-yl)benzene-1,2-diol]	> 100
COc1cc(-c2nc3cc(N4CCN(c5ccccc5)CC4)ccc3[nH]2)cc(O)c1O [Example 53, 3-methoxy-5-(5-(4-phenylpiperazin-1-yl)-1H-benzo[d]imidazol-2-yl)benzene-1,2-diol]	> 100
COc1cc(-c2nc3ccncc3n2C)c(C)c(O)c1O [Example 54, 6-methoxy-3-methyl-4-(3-methyl-3H-imidazo[4,5-c]pyridin-2-yl)benzene-1,2-diol]	10 to 100
COc1cc(-c2nc3cc(N4CCOCC4)ncc3[nH]2)cc(O)c1O [Example 55, 3-methoxy-5-(6-morpholino-3H-imidazo[4,5-c]pyridin-2-yl)benzene-1,2-diol]	> 100
O=C(O)c1ccc(-c2nc3ccccc3n2C2COC2)cc1O [Example 56, 2-hydroxy-4-(1-(oxetan-3-yl)-1H-benzo[d]imidazol-2-yl)benzoic acid]	> 100
COc1cc(-c2nc3cc(N4CCN(C5CCCCC5)CC4)ccc3[nH]2)cc(O)c1O [Example 57, 5-(5-(4-cyclohexylpiperazin-1-yl)-1H-benzo[d]imidazol-2-yl)-3-methoxybenzene-1,2-diol]	> 100
COc1cc(-c2nc3cc(C4CCNCC4)ccc3[nH]2)cc(O)c1O [Example 58, 3-methoxy-5-(5-(piperidin-4-yl)-1H-benzo[d]imidazol-2-yl)benzene-1,2-diol]	> 100
COc1cc(-c2nc3cc(N4CCN(Cc5ccccc5)CC4)ccc3[nH]2)cc(O)c1O [Example 59, 5-(5-(4-benzylpiperazin-1-yl)-1H-benzo[d]imidazol-2-yl)-3-methoxybenzene-1,2-diol]	10 to 100

Structure (SMILES)	IC50 [µM]
COc1cc(-c2nc3cc(N4CCN(C)CC4)ccc3n2C2COC2)cc(O)c1O [Example 60, 3-methoxy-5-(5-(4-methylpiperazin-1-yl)-1-(oxetan-3-yl)-1H-benzo[d]imidazol-2-yl)benzene-1,2-diol]	10 to 100
COCCN1CCN(c2ccc3[nH]c(-c4cc(O)c(O)c(OC)c4)nc3c2)CC1 [Example 61, 3-methoxy-5-(5-(4-(2-methoxyethyl)piperazin-1-yl)-1H-benzo[d]imidazol-2-yl)benzene-1,2-diol]	> 100
COc1cc(-c2nc3cc(N4CCN(c5cccnc5)CC4)ccc3[nH]2)cc(O)c1O [Example 62, 3-methoxy-5-(5-(4-(pyridin-3-yl)piperazin-1-yl)-1H-benzo[d]imidazol-2-yl)benzene-1,2-diol]	1 to 10
COc1cc(-c2nc3ccc(N4CCOCC4)cc3n2C)cc(O)c1O [Example 63, 3-methoxy-5-(1-methyl-6-morpholino-1H-benzo[d]imidazol-2-yl)benzene-1,2-diol]	10 to 100
COc1c(O)c(O)c(C)c(-c2nc3ccccc3[nH]2)c1F [Example 64, 4-(1H-benzo[d]imidazol-2-yl)-5-fluoro-6-methoxy-3-methylbenzene-1,2-diol]	10 to 100
CCCCN1CCN(c2ccc3[nH]c(-c4cc(O)c(O)c(OC)c4)nc3c2)CC1 [Example 65, 5-(5-(4-butylpiperazin-1-yl)-1H-benzo[d]imidazol-2-yl)-3-methoxybenzene-1,2-diol]	> 100
COc1cc(-c2nc3cc(N4CCN(CCF)CC4)ccc3[nH]2)cc(O)c1O [Example 66, 5-(5-(4-(2-fluoroethyl)piperazin-1-yl)-1H-benzo[d]imidazol-2-yl)-3-methoxybenzene-1,2-diol]	10 to 100
COc1ccc2c(c1)CCN(c1ccc3[nH]c(-c4cc(O)c(O)c(OC)c4)nc3c1)C2 [Example 67, 3-methoxy-5-(5-(6-methoxy-3,4-dihydroisoquinolin-2(1H)-yl)-1H-benzo[d]imidazol-2-yl)benzene-1,2-diol]	> 100
COc1cc(-c2nc3cc(C4CCN(C)CC4)ccc3[nH]2)cc(O)c1O [Example 68, 3-methoxy-5-(5-(1-methylpiperidin-4-yl)-1H-benzo[d]imidazol-2-yl)benzene-1,2-diol]	> 100
COc1cc(-c2nc3cc(-c4ccccc4)ccc3[nH]2)cc(O)c1O [Example 69, 3-methoxy-5-(5-phenyl-1H-benzo[d]imidazol-2-yl)benzene-1,2-diol]	> 100
COc1cc(-c2nc3cc(N4CCOCC4)cnc3[nH]2)cc(O)c1O [Example 70, 3-methoxy-5-(6-morpholino-3H-imidazo[4,5-b]pyridin-2-yl)benzene-1,2-diol]	> 100
O=C(O)c1cc(-c2nc3ccncc3[nH]2)ccc1O [Example 71, 2-hydroxy-5-(3H-imidazo[4,5-c]pyridin-2-yl)benzoic acid]	10 to 100
COc1cc(-c2nc3cc(N4CCN(C(C)C)CC4)ccc3[nH]2)cc(O)c1O [Example 72, 5-(5-(4-isopropylpiperazin-1-yl)-1H-benzo[d]imidazol-2-yl)-3-methoxybenzene-1,2-diol]	10 to 100
COc1cc(-c2nc3cc(N4CCN(c5ccccn5)CC4)ccc3[nH]2)cc(O)c1O [Example 73, 3-methoxy-5-(5-(4-(pyridin-2-yl)piperazin-1-yl)-1H-benzo[d]imidazol-2-yl)benzene-1,2-diol]	> 100
COc1cc(-c2nc3cc(N4CCC(N(C)C)CC4)ccc3[nH]2)cc(O)c1O [Example 74, 5-(5-(4-(dimethylamino)piperidin-1-yl)-1H-benzo[d]imidazol-2-yl)-3-methoxybenzene-1,2-diol]	10 to 100
COc1cc(-c2nc3cc(C4CCCCC4)ccc3[nH]2)cc(O)c1O [Example 75, 5-(5-cyclohexyl-1H-benzo[d]imidazol-2-yl)-3-methoxybenzene-1,2-diol]	> 100
COc1cc(-c2nc3c(N4CCOCC4)cncc3[nH]2)cc(O)c1O [Example 76, 3-methoxy-5-(7-morpholino-3H-imidazo[4,5-c]pyridin-2-yl)benzene-1,2-diol]	10 to 100
COc1cc(-c2nc3ccncc3s2)cc(O)c1O [Example 77, 3-methoxy-5-(thiazolo[5,4-c]pyridin-2-yl)benzene-1,2-diol]	10 to 100
